Results published in patent US5455222A, “1-substituted-5-thiomethylthiocyanato-1H-tetrazoles, compositions containing them and their use as antimicrobial and marine antifouling agents” (The Dow Chemical Company, priority 1994, dated 1995).
≈ marks a conversion by molar mass, not a printed value.

How the values were obtained:
Trichoderma viride (Tv) = assay: Minimum inhibitory concentration (MIC), yeast/fungi in malt yeast agar; format: cell-based, Trichoderma viride ATCC 8678; conditions: 30° C., 72 hours for fungi
Protocol: (§1) The minimum inhibitory concentration (MIC) for the compounds listed in Table I is determined for 9 bacteria, using nutrient agar, and 7 yeast and fungi, using malt yeast agar. A one percent solution of the test compound is prepared in a mixture of acetone and water.
(§2) Malt yeast agar is prepared by adding 3 g yeast extract and 45 g malt agar per liter of deionized water. The specific agar is dispensed in 30 mL aliquots into 25×200 mm test tubes, capped and autoclaved for 15 minutes at 115° C.
(§3) The test tubes containing the agar are cooled in a water bath until the temperature of the agar is 48° C. Then, an appropriate amount of the one percent solution of the test compound is added (except in the controls where no compound is added) to the respective test tubes so that the final concentrations are 500, 250, 100, 50, 25, 10, 5, 2.5, 1.0 and zero parts per million of the test compound in the agar, thus having a known concentration of test compound dispersed therein. The contents of the test tubes are then transferred to respective petri plates. After drying for 24 hours, the petri plates containing nutrient agar are inoculated with bacteria and those containing malt yeast agar are inoculated with yeast and fungi.
(§4) The inoculation with the yeast and fungi is accomplished as follows. Cultures of yeast and fungi are incubated for seven days on malt yeast agar at 30° C. These cultures are used to prepare suspensions by the following procedure. A suspension of each organism is prepared by adding 10 mL of sterile saline and 10 microliters of octylphenoxy polyethoxy ethanol to the agar slant of yeast or fungi. The sterile saline/octylphenoxy polyethoxy ethanol solution is then agitated with a sterile swab to suspend the microorganism grown on the slant. Each resulting suspension is diluted into sterile saline (1 part suspension to 9 parts sterile saline). Aliquots of these dilutions are placed in individual wells of Steer's Replicator and petri plates inoculated as previously described. The petri plates are incubated at 30° C. and read after 48 hours for yeast and 72 hours for fungi.
(§5) Table II lists the bacteria, yeast and fungi used in the MIC test described above along with their respective American Type Culture Collection (ATCC) identification numbers.
(§6) In Tables III and IV, the MIC values of the compounds described in Table I as compared to the MIC of a standard commercial preservative (with 1-(3-chloroallyl)-3,5,7-triaza-1-azoniaadamantane chloride as the active agent and referred to in Tables III and IV as "STANDARD I") are set forth for the bacteria organisms and yeast/fungi organisms which are listed in Table II.

[1] = test system: Pseudomonas aeruginosa (Pa); assay: Minimum inhibitory concentration (MIC), bacteria in nutrient agar; format: cell-based, Pseudomonas aeruginosa ATCC 10145; conditions: nutrient agar pH 8.2, 30° C., 48 hours
Protocol: as §1
(§7) Nutrient agar is prepared at pH 6.8, representing a neutral medium, and at pH 8.2, representing an alkaline medium. The nutrient agars are prepared by adding 23 g of nutrient agar to one liter of deionized water. In addition, the alkaline medium is prepared by adjusting a 0.04M solution of N-[tris-(hydroxymethyl)methyl]glycine buffered deionized water with concentrated sodium hydroxide to a pH of 8.5.
as §3
(§8) The inoculation with bacteria is accomplished by using the following procedure. Twenty-four hour-cultures of each of the bacteria are prepared by incubating the respective bacteria in tubes containing nutrient broth for 24 hours at 30° C. in a shaker. Dilutions of each of the 24 hour-cultures are made so that nine separate suspensions (one for each of the nine test bacteria) are made, each containing 10^8 colony forming units (CFU) per mL of suspension of a particular bacteria. Aliquots of 0.3 mL of each of the bacterial suspensions are used to fill the individual wells of Steer's Replicator. For each microbial suspension, 0.3 mL was used to fill three wells (i.e., three wells of 0.3 mL each) so that for the nine different bacteria, 27 wells are filled. The Steer's Replicator is then used to inoculate both the neutral and alkaline pH nutrient agar petri plates.
(§9) The inoculated petri plates are incubated at 30° C. for 48 hours and then read to determine if the test compound which is incorporated into the agar prevented growth of the respective bacteria.
as §5, §6

Fusarium oxysporum (Fo) = assay: Minimum inhibitory concentration (MIC), yeast/fungi in malt yeast agar; format: cell-based, Fusarium oxysporum ATCC 48112; conditions: 30° C., 72 hours for fungi
Protocol: as §1, §2, §3, §4, §5, §6

Aspergillus niger (An) = assay: as above; format: cell-based, Aspergillus niger ATCC 16404; conditions: 30° C., 72 hours for fungi
Protocol: as §1, §2, §3, §4, §5, §6

Escherichia coli (Ec) = assay: Minimum inhibitory concentration (MIC), bacteria in nutrient agar; format: cell-based, Escherichia coli ATCC 11229; conditions: 48 hours
Protocol: as §1, §7, §3, §8, §9, §5, §6

[2] = test system: Enterobacter aerogenes (Ea); assay: as above; format: cell-based, Enterobacter aerogenes ATCC 13048; conditions: Klebsiella aerogenes, 48 hours
Protocol: as §1, §7, §3, §8, §9, §5, §6

Proteus vulgaris (Pv) = assay: as above; format: cell-based, Proteus vulgaris ATCC 881; conditions: 48 hours
Protocol: as §1, §7, §3, §8, §9, §5, §6

[3] = test system: Salmonella choleraesuis (Sc); assay: as above; format: cell-based, Salmonella choleraesuis ATCC 10708; conditions: Salmonella enterica, 48 hours
Protocol: as §1, §7, §3, §8, §9, §5, §6

[4] = test system: Aureobasidium pullulan (Ap); assay: Minimum inhibitory concentration (MIC), yeast/fungi in malt yeast agar; format: cell-based, Aureobasidium pullulan ATCC 16622; conditions: 30° C., read after 48 hours for yeast and 72 hours for fungi
Protocol: as §1, §2, §3, §4, §5, §6

[5] = test system: Pseudomonas aeruginosa (PRD-10); assay: Minimum inhibitory concentration (MIC), bacteria in nutrient agar; format: cell-based, Pseudomonas aeruginosa ATCC 15442; conditions: 48 hours
Protocol: as §1, §7, §3, §8, §9, §5, §6

[6] = test system: Penicillium chrysogenum (Pc); assay: Minimum inhibitory concentration (MIC), yeast/fungi in malt yeast agar; format: cell-based, Penicillium chrysogenum ATCC 9480; conditions: 30° C., 72 hours for fungi
Protocol: as §1, §2, §3, §4, §5, §6

[7] = test system: Saccharomyces cerevisiae (Sc); assay: as above; format: cell-based, Saccharomyces cerevisiae ATCC 4105; conditions: 30° C., 48 hours for yeast
Protocol: as §1, §2, §3, §4, §5, §6

Candida albicans (Ca) = assay: as above; format: cell-based, Candida albicans ATCC 10231; conditions: 30° C., 48 hours for yeast
Protocol: as §1, §2, §3, §4, §5, §6

[8] = test system: Klebsiella pneumoniae (Kp); assay: Minimum inhibitory concentration (MIC), bacteria in nutrient agar; format: cell-based, Klebsiella pneumoniae ATCC 8308; conditions: 48 hours
Protocol: as §1, §7, §3, §8, §9, §5, §6

[9] = test system: Staphylococcus aureus (Sa); assay: as above; format: cell-based, Staphylococcus aureus ATCC 6538; conditions: 48 hours
Protocol: as §1, §7, §3, §8, §9, §5, §6

Bacillus subtilis (Bs) = assay: as above; format: cell-based, Bacillus subtilis ATCC 8473; conditions: 48 hours
Protocol: as §1, §7, §3, §8, §9, §5, §6

Structure (SMILES) | MIC (Trichoderma viride (Tv)) [µg/mL] | MIC (Fusarium oxysporum (Fo)) [µg/mL] | MIC (Aspergillus niger (An)) [µg/mL] | MIC (Escherichia coli (Ec); nutrient agar pH 6.8, 30° C.) [µg/mL] | MIC (Escherichia coli (Ec); nutrient agar pH 8.2, 30° C.) [µg/mL] | MIC ([2]; nutrient agar pH 6.8, 30° C.) [µg/mL] | MIC ([2]; nutrient agar pH 8.2, 30° C.) [µg/mL] | MIC (Proteus vulgaris (Pv); nutrient agar pH 6.8, 30° C.) [µg/mL] | MIC (Proteus vulgaris (Pv); nutrient agar pH 8.2, 30° C.) [µg/mL] | MIC ([3]; nutrient agar pH 6.8, 30° C.) [µg/mL] | MIC ([3]; nutrient agar pH 8.2, 30° C.) [µg/mL] | MIC [4] [µg/mL] | MIC ([5]; nutrient agar pH 6.8, 30° C.) [µg/mL] | MIC ([5]; nutrient agar pH 8.2, 30° C.) [µg/mL] | MIC [6] [µg/mL] | MIC [7] [µg/mL] | MIC (Candida albicans (Ca)) [µg/mL] | MIC ([8]; nutrient agar pH 6.8, 30° C.) [µg/mL] | MIC ([8]; nutrient agar pH 8.2, 30° C.) [µg/mL] | MIC ([9]; nutrient agar pH 6.8, 30° C.) [µg/mL] | further results
N#CSCSc1nnnn1-c1ccc(C#N)cc1 [XII, 1-(4-Cyanophenyl)-5-thiomethylthiocyanato-1H-tetrazole] | 40 (≈ 146 µM) | 20 (≈ 72.9 µM) | < 10 | 200 (≈ 729 µM) | 400 (≈ 1460 µM) | 500 (≈ 1820 µM) | > 400 | 100 (≈ 365 µM) | 200 (≈ 729 µM) | 500 (≈ 1820 µM) | 400 (≈ 1460 µM) | < 10 | 500 (≈ 1820 µM) | 400 (≈ 1460 µM) | < 10 | 40 (≈ 146 µM) | 200 (≈ 729 µM) | 100 (≈ 365 µM) | 100 (≈ 365 µM) | 20 (≈ 72.9 µM) | MIC [1]: 200 µg/mL (≈ 729 µM); MIC ([9]; nutrient agar pH 8.2, 30° C.): 100 µg/mL (≈ 365 µM); MIC (Bacillus subtilis (Bs); nutrient agar pH 6.8, 30° C.): < 10 µg/mL; MIC (Bacillus subtilis (Bs); nutrient agar pH 8.2, 30° C.): 40 µg/mL (≈ 146 µM)
N#CSCSc1nnnn1-c1ccc(Br)cc1 [IV, 1-(4-Bromophenyl)-5-thiomethylthiocyanato-1H-tetrazole] | 25 (≈ 76.2 µM) | < 10 | < 10 | 500 (≈ 1520 µM) | 500 (≈ 1520 µM) | 500 (≈ 1520 µM) | 500 (≈ 1520 µM) | 500 (≈ 1520 µM) | 500 (≈ 1520 µM) | 500 (≈ 1520 µM) | 500 (≈ 1520 µM) | < 10 | 500 (≈ 1520 µM) | 500 (≈ 1520 µM) | < 10 | < 10 | 25 (≈ 76.2 µM) | 500 (≈ 1520 µM) | 500 (≈ 1520 µM) | 500 (≈ 1520 µM) | MIC ([9]; nutrient agar pH 8.2, 30° C.): 500 µg/mL (≈ 1520 µM); MIC (Bacillus subtilis (Bs); nutrient agar pH 6.8, 30° C.): < 10 µg/mL; MIC (Bacillus subtilis (Bs); nutrient agar pH 8.2, 30° C.): 25 µg/mL (≈ 76.2 µM)
